# Reference: ChEMBL document CHEMBL1140066, “3,4-Dihydro-2H-1,4-benzoxazine derivatives combining thrombin inhibitory and glycoprotein IIb/IIIa receptor antagonistic activity as a novel class of antithrombotic compounds with dual function” (J Med Chem, 2008)
# The source made the active and inactive calls. No cut-off for these calls is given here.
# Tests used:
# [1] = molecular target: Prothrombin (Homo sapiens, UniProt P00734)
# [2] = test system: Platelet; assay: Inhibition of ADP-induced platelet aggregation in human platelet rich plasma at 50 uM; format: functional
# [3] = Selectivity for thrombin over trypsin
# [4] = Selectivity for thrombin over factor 10a
# [5] = molecular target: Integrin alpha-IIb/beta-3 (Homo sapiens, UniProt P05106+P08514); assay: Inhibition of fibrinogen binding to human platelet GPIIb/IIIa receptor
# Chain of Integrin alpha-IIb/beta-3 (P05106 27-788 limits assumed): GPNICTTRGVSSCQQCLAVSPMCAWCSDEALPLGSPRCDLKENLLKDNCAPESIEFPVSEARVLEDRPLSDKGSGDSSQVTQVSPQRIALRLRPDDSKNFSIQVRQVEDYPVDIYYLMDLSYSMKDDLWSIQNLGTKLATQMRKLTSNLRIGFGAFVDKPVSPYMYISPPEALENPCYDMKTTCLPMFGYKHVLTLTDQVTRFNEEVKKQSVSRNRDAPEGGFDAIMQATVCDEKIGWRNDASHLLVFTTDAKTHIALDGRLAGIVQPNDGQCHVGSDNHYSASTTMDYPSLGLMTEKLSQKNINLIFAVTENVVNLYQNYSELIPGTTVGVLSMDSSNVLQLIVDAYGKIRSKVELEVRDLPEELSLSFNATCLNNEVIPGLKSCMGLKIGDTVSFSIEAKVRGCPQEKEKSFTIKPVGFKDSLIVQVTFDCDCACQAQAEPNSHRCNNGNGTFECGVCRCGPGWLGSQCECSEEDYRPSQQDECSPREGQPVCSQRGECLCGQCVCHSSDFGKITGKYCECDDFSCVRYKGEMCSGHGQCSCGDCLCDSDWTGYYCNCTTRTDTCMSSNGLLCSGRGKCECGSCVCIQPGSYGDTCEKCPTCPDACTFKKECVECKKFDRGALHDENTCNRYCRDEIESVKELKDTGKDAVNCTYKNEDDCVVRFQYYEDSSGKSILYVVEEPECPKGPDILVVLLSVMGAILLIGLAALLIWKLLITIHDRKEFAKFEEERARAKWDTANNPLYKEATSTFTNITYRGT
# Chain of Integrin alpha-IIb/beta-3 (P08514 32-887 limits assumed): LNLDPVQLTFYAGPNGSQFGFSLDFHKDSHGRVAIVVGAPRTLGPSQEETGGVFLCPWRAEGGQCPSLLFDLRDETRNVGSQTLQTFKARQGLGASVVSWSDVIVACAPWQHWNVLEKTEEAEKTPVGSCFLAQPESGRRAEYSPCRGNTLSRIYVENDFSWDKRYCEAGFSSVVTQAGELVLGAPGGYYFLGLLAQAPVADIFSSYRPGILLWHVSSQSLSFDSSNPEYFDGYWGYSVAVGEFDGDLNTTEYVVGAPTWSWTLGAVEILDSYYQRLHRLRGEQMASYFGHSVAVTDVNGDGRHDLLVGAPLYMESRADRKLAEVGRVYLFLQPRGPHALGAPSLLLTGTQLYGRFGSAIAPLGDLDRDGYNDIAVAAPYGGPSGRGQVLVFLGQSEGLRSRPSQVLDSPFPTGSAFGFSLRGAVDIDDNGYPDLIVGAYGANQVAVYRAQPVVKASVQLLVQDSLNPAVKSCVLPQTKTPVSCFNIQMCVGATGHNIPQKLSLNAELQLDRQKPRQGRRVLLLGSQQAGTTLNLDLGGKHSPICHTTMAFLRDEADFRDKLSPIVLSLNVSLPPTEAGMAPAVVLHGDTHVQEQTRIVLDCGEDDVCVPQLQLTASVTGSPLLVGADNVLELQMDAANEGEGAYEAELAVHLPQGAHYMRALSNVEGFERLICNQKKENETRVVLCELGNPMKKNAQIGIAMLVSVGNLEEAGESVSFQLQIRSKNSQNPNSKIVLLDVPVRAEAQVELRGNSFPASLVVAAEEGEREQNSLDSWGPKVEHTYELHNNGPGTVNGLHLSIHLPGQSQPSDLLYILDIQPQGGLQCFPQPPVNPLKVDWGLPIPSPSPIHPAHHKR
# Chain of Integrin alpha-IIb/beta-3 (P08514 891-1039 limits assumed): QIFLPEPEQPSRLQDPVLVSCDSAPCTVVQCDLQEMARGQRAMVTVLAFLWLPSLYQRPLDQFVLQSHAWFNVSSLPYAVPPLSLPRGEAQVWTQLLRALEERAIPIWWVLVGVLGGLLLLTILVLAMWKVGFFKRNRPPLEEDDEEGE
# [6] = molecular target: Coagulation factor X (Homo sapiens, UniProt P00742); assay: Inhibition of factor 10a
# Chain of Coagulation factor X (P00742 41-179 limits assumed): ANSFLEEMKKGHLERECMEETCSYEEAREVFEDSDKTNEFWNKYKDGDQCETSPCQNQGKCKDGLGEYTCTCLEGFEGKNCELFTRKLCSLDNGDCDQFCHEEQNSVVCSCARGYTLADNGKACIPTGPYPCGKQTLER
# Chain of Coagulation factor X (P00742 235-488 limits assumed): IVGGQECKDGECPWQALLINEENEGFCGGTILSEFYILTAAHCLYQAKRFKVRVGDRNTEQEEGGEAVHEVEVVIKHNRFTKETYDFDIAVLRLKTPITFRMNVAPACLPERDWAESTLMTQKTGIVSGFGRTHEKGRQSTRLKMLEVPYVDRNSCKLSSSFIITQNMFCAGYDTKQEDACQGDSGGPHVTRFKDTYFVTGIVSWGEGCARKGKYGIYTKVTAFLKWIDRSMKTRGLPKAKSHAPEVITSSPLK
# [7] = test system: Platelet; assay: Inhibition of ADP-induced platelet aggregation in human platelet rich plasma; format: functional, cell-free
SMILES,Ki [1] [µM],inhibition at 50 µM [2] [%],Selectivity ratio [3],Selectivity ratio [4],IC50 [5] [µM],Ki [6] [µM],Activity [2],IC50 [7] [µM]
CCOC(=O)CN(C(=O)c1ccccc1)c1ccc2c(c1)OC(C)(COc1ccc(C(=N)N)cc1)CN2C (stereo unspecified),0.156,21,12,47,1.78,9.59,–,–
CCOC(=O)CCC(=O)N(Cc1ccccc1)c1ccc2c(c1)N(C)CC(C)(COc1ccc(C(=N)N)cc1)O2 (stereo unspecified),–,–,–,–,> 100,27.7,inactive,–
CCOC(=O)CN(C(=O)c1ccc2c(c1)OC(OCc1ccc(C(=N)N)cc1)C(=O)N2C)c1ccccc1 (stereo unspecified),3.98,10,4.6,11,28.4,43.1,–,–
CN1C(=O)C(OCc2ccc(C(=N)N)cc2)Oc2cc(C(=O)NCCC(=O)O)ccc21 (stereo unspecified),118,23,0.2,1,15.2,112,–,–
CN1CC(C)(COc2ccc(C(=N)N)cc2)Oc2cc(N(Cc3ccccc3)C(=O)CCC(=O)O)ccc21 (stereo unspecified),–,14,–,–,> 100,29.7,–,–
CCOC(=O)C[C@H](NC(=O)c1ccc2c(c1)OC(OCc1ccc(C(=N)N)cc1)C(=O)N2C)c1ccccc1 (stereo partly specified),–,–,–,–,24.6,54.6,–,–
CN1CC(C)(COc2ccc(C(=N)N)cc2)Oc2cc(N(Cc3ccccc3)C(=O)C(=O)O)ccc21 (stereo unspecified),–,26,–,–,> 100,16.6,–,–
CCOC(=O)CN(Cc1ccccc1)c1ccc2c(c1)N(C)CC(C)(COc1ccc(C(=N)N)cc1)O2 (stereo unspecified),–,13,–,–,0.73,11.9,–,–
CCOC(=O)CCC(=O)N(Cc1ccccc1)c1ccc2c(c1)OC(C)(COc1ccc(C(=N)N)cc1)CN2C (stereo unspecified),0.06,–,19,300,29.3,18,inactive,–
CCOC(=O)C(Cc1ccccc1)C(=O)Nc1ccc2c(c1)N(C)CC(C)(COc1ccc(C(=N)N)cc1)O2 (stereo unspecified),4.93,8,0.6,6,36.5,29.5,–,–
CN1CC(C)(COc2ccc(C(=N)N)cc2)Oc2cc(NC(=O)C(Cc3ccccc3)C(=O)O)ccc21 (stereo unspecified),5.5,–,–,–,–,–,–,24.9
CCOC(=O)C(=O)N(Cc1ccccc1)c1ccc2c(c1)N(C)CC(C)(COc1ccc(C(=N)N)cc1)O2 (stereo unspecified),–,24,–,–,1.2,16,–,–
CN1CC(C)(COc2ccc(C(=N)N)cc2)Oc2cc(NC(=O)c3ccccc3)ccc21 (stereo unspecified),5,21,0.3,2.4,2.85,12.1,–,–
CCOC(=O)CN(Cc1ccccc1)c1ccc2c(c1)OC(C)(COc1ccc(C(=N)N)cc1)CN2C (stereo unspecified),0.38,19,4.5,7,1.45,2.67,–,–
CCOC(=O)CCC(=O)Nc1ccc2c(c1)OC(C)(COc1ccc(C(=N)N)cc1)CN2C (stereo unspecified),16.9,15,0.4,4.4,14,74.7,–,–
CN1C(=O)C(OCc2ccc(C(=N)N)cc2)Oc2cc(C(=O)Nc3ccccc3)ccc21 (stereo unspecified),24.2,19,0.7,1.3,12.1,31.6,–,–
CCOC(=O)CCC(=O)N(Cc1ccccn1)c1ccc2c(c1)OC(C)(COc1ccc(C(=N)N)cc1)CN2C (stereo unspecified),0.025,15,56,472,11.3,11.8,–,–
CN1CC(C)(COc2ccc(C(=N)N)cc2)Oc2cc(NC(=O)CCC(=O)O)ccc21 (stereo unspecified),5.16,–,0.3,6.6,1.69,33.8,–,36.7
COC(=O)C(Cc1ccccc1)C(=O)Nc1ccc2c(c1)OC(C)(COc1ccc(C(=N)N)cc1)CN2C (stereo unspecified),2.86,21,1.7,12,9.11,35.4,–,–
CCOC(=O)C(C(=O)Nc1ccc2c(c1)OC(OCc1ccc(C(=N)N)cc1)C(=O)N2C)c1ccccc1 (stereo unspecified),9.89,23,1.5,5.1,2.44,50.3,–,–
CN1CC(C)(COc2ccc(C(=N)N)cc2)Oc2ccc(N(Cc3ccccc3)C(=O)C(=O)O)cc21 (stereo unspecified),–,–,–,–,> 100,31.7,–,–
CCOC(=O)C(=O)N(Cc1ccccc1)c1ccc2c(c1)OC(C)(COc1ccc(C(=N)N)cc1)CN2C (stereo unspecified),–,21,–,–,2,112,–,–
CN1C(=O)C(OCc2ccc(C(=N)N)cc2)Oc2cc(C(=O)N(CC(=O)O)c3ccccc3)ccc21 (stereo unspecified),1.76,24,9.4,28,> 100,49.6,–,–
CN1C(=O)C(OCc2ccc(C(=N)N)cc2)Oc2cc(C(=O)N[C@@H](CC(=O)O)c3ccccc3)ccc21 (stereo partly specified),14.9,–,–,–,1.64,> 200,–,–
